Experimental data from patent US5496947A, “Quinolone carboxylic acid derivatives” (Dong Wha Pharmaceutical Industrial Co., Ltd., priority 1994, dated 1996).
Like-named read-outs stand apart in the source and are kept apart here.

Assays:
Type in all cases: cell-based
[1] = test system: Serratia marcescens ATCC 8100; assay: MIC, 2-fold dilution method in micro-well plate, S. marcescens
Description: (§1) The in vitro antibiotic activity of the present compound is measured using 2-fold dilution method with a micro-well plate and the bacteria are inoculated in about 10^5 cfu/ml after an overnight culture in a brain-heart infusion (BHI) broth at 37° C. The novel compounds of the present invention are converted to a hydrochloride salt form and diluted with a sterilized distilled water to make 10 mg/ml aqueous solution. After the mother liquor wherein the compound is diluted to the two-fold concentration has been obtained in the form of an aqueous solution, the respective 0.1 ml of diluted liquor is transferred to a well and is inoculated with 0.1 ml of the culture fluid to make about (10^5 -10^6)/2 cfu/ml.
(§2) After cultivation at 37° C., the minimum inhibitory concentration (MIC) is measured and recorded in Table I-V.
(§3) Table I-V show the minimum inhibitory concentrations (MIC).
Serratia marcescens ATCC 8100

[2] = test system: Citrobacter freundii ATCC 8090; assay: MIC, 2-fold dilution method in micro-well plate, C. freundii
Description: as §1, §2, §3
Citrobacter freundii ATCC 8090

[3] = test system: Streptococcus faecalis ATCC 29212; assay: MIC, 2-fold dilution method in micro-well plate, S. faecalis ATCC 29212; settings: Enterococcus faecalis; S. faecalis ATCC29212, 37° C.; read-out: Minimum Inhibitory Concentration
Description: as §1, §2, §3
Streptococcus faecalis ATCC 29212

[4] = test system: Shigella sonnei ATCC 25931; assay: MIC, 2-fold dilution method in micro-well plate, S. sonnei; settings: S. sonnei ATCC25931, 37° C., read-out: Minimum Inhibitory Concentration
Description: as §1, §2, §3
Shigella sonnei ATCC 25931

[5] = test system: Klebsiella pneumoniae ATCC 13883; assay: MIC, 2-fold dilution method in micro-well plate, K. pneumoniae
Description: as §1, §2, §3
Klebsiella pneumoniae ATCC 13883

[6] = test system: Escherichia coli ATCC 25922; assay: MIC, 2-fold dilution method in micro-well plate, E. coli
Description: as §1, §2, §3
Escherichia coli ATCC 25922

[7] = test system: Haemophilus influenza ATCC 35056; assay: MIC, 2-fold dilution method in micro-well plate, H. influenzae; settings: H. influenzae ATCC35056, 37° C.; read-out: Minimum Inhibitory Concentration
Description: as §1, §2, §3
Haemophilus influenza ATCC 35056

[8] = test system: Proteus vulgaris ATCC 13315; assay: MIC, 2-fold dilution method in micro-well plate, P. vulgaris
Description: as §1, §2, §3
Proteus vulgaris ATCC 13315

[9] = test system: Streptococcus faecalis ATCC 19433; assay: MIC, 2-fold dilution method in micro-well plate, S. faecalis ATCC 19433; settings: Enterococcus faecalis; S. faecalis ATCC19433, 37° C.; read-out: Minimum Inhibitory Concentration
Description: as §1, §2, §3
Streptococcus faecalis ATCC 19433

[10] = test system: Shigella flexneri ATCC 12022; assay: MIC, 2-fold dilution method in micro-well plate, S. flexneri; settings: S. flexneri ATCC12022, 37° C., read-out: Minimum Inhibitory Concentration
Description: as §1, §2, §3
Shigella flexneri ATCC 12022

Enterobacter cloacae = assay: MIC, 2-fold dilution method in micro-well plate, E. cloacae; settings: read-out: Minimum Inhibitory Concentration
Description: as §1, §2, §3
Enterobacter cloacae ATCC 23355

[11] = test system: Streptococcus pyrogens ATCC 19615; assay: MIC, 2-fold dilution method in micro-well plate, S. pyrogens; settings: S. pyrogenes ATCC19615, 37° C., read-out: Minimum Inhibitory Concentration
Description: as §1, §2, §3
Streptococcus pyrogens ATCC 19615

[12] = test system: Streptococcus pneumoniae ATCC 6303; assay: MIC, 2-fold dilution method in micro-well plate, S. pneumoniae; settings: S. pneuinoniae ATCC6303, 37° C., read-out: Minimum Inhibitory Concentration
Description: as §1, §2, §3
Streptococcus pneumoniae ATCC 6303

[13] = test system: Pseudomonas aeruginosa ATCC 27853; assay: MIC, 2-fold dilution method in micro-well plate, P. aeruginosa
Description: as §1, §2, §3
Pseudomonas aeruginosa ATCC 27853

[14] = test system: Salmonella typhimurium ATCC 14028; assay: MIC, 2-fold dilution method in micro-well plate, S. typhimurium; settings: Salmonella enterica, read-out: Minimum Inhibitory Concentration
Description: as §1, §2, §3
Salmonella typhimurium ATCC 14028

[15] = test system: Enterobacter aerogenes ATCC 13048; assay: MIC, 2-fold dilution method in micro-well plate, E. aerogenes; settings: Klebsiella aerogenes
Description: as §1, §2, §3
Enterobacter aerogenes ATCC 13048

[16] = test system: Acinetobacter calcoaceticus; assay: MIC, 2-fold dilution method in micro-well plate, A. calcoaceticus
Description: as §1, §2
Table I-V show the minimum inhibitory concentrations (MIC). […]

[17] = S. marcescens ATCC8100, 37° C., read-out: Minimum Inhibitory Concentration
[18] = C. freundii ATCC8090, 37° C., read-out: Minimum Inhibitory Concentration
[19] = K. pneumoniae ATCC13883, 37° C., read-out: Minimum Inhibitory Concentration
[20] = E. coli ATCC25922, 37° C., read-out: Minimum Inhibitory Concentration
[21] = ATCC13315, read-out: Minimum Inhibitory Concentration
[22] = E. cloacae ATCC23355 (as in tables), 37° C.
[23] = ATCC27853, read-out: Minimum Inhibitory Concentration
[24] = E. aerogenes ATCC13048, 37° C., read-out: Minimum Inhibitory Concentration
[25] = A. calcoaceticus ATCC8090 (as in tables), 37° C., read-out: Minimum Inhibitory Concentration
[26] = ATCC8100, read-out: Minimum Inhibitory Concentration
[27] = ATCC13883, read-out: Minimum Inhibitory Concentration
[28] = ATCC25922, read-out: Minimum Inhibitory Concentration
[29] = ATCC13048, read-out: Minimum Inhibitory Concentration
[30] = ATCC8090, read-out: Minimum Inhibitory Concentration
[31] = P. vulgaris ATCC13315, 37° C., read-out: Minimum Inhibitory Concentration
[32] = P. aerugirnosa ATCC27853, 37° C., read-out: Minimum Inhibitory Concentration

Compound | MIC [1, 17] | MIC [2, 18] | MIC [3] | MIC [4] | MIC [6, 20] | MIC [7] | MIC [8, 21] | MIC [9] | MIC [10] | MIC [11] | MIC [12] | MIC [13, 23] | MIC [14] | MIC [15, 24] | MIC [16, 25] | MIC [1, 26] | MIC [5, 27] | MIC (Enterobacter cloacae) | MIC [15, 29] | MIC [2, 30] | further results
Cl.O=C(O)c1cn(-c2ccncc2F)c2nc(N3CCNCC3)c(F)cc2c1=O [Example 7, 1-(3-fluoro-4-pyridyl)-6-fluoro-7-(1-piperazinyl)-1,4-dihydro-4-oxo-1,8-naphthyridine-3-carboxylic acid hydrochloride] | 1.25 µg/mL | 1.25 µg/mL | 5 µg/mL | 0.313 µg/mL | 0.625 µg/mL | 0.313 µg/mL | 0.313 µg/mL | 2.5 µg/mL | 0.156 µg/mL | 5 µg/mL | 2.5 µg/mL | 0.625 µg/mL | 0.313 µg/mL | 0.625 µg/mL | 2.5 µg/mL |  |  |  |  |  | MIC [5, 19]: 0.625 µg/mL; MIC (Enterobacter cloacae; [22]): 0.625 µg/mL
CN1CCN(c2nc3c(cc2F)c(=O)c(C(=O)O)cn3-c2ccncc2F)CC1.Cl [Example 8, 1-(3-fluoro-4-pyridyl)-6-fluoro-7-(4-methyl-1-piperazinyl)-1,4-dihydro-4-oxo-1,8-naphthyridine-3-carboxylic acid hydrochloride] |  | 1.25 µg/mL | 5 µg/mL | 0.625 µg/mL |  | 0.625 µg/mL | 0.313 µg/mL | 5 µg/mL | 0.313 µg/mL | 10 µg/mL | 5 µg/mL | 0.625 µg/mL | 0.313 µg/mL |  | 1.25 µg/mL | 0.625 µg/mL | 0.625 µg/mL | 0.625 µg/mL | 0.625 µg/mL |  | MIC [6, 28]: 0.313 µg/mL
CC1CN(c2nc3c(cc2F)c(=O)c(C(=O)O)cn3-c2ccncc2F)CCN1.Cl (centres unmarked) [Example 9, 1-(3-fluoro-4-pyridyl)-6-fluoro-7-(3-methyl-1-piperazinyl)-1,4-dihydro-4-oxo-1,8-naphthyridine-3-carboxylic acid hydrochloride] |  |  | 2.5 µg/mL | 0.625 µg/mL |  | 1.25 µg/mL | 0.625 µg/mL | 2.5 µg/mL | 0.625 µg/mL | 10 µg/mL | 5 µg/mL | 0.625 µg/mL | 0.625 µg/mL |  | 10 µg/mL | 1.25 µg/mL | 1.25 µg/mL | 0.625 µg/mL | 0.625 µg/mL | 1.25 µg/mL | MIC [6, 28]: 0.625 µg/mL
CC1CN(c2nc3c(cc2F)c(=O)c(C(=O)O)cn3-c2ccncc2F)CC(C)N1.Cl (centres unmarked) [Example 10, 1-(3-fluoro-4-pyridyl)-6-fluoro-7-(3,5-dimethyl-1-piperazinyl)-1,4-dihydro-4-oxo-1,8-naphthyridine-3-carboxylic acid hydrochloride] | 2.5 µg/mL | 1.25 µg/mL | 5 µg/mL | 0.625 µg/mL | 1.25 µg/mL | 0.625 µg/mL | 0.625 µg/mL | 2.5 µg/mL | 0.625 µg/mL | 10 µg/mL | 5 µg/mL | 0.25 µg/mL | 0.625 µg/mL | 1.25 µg/mL | 10 µg/mL |  | 0.625 µg/mL | 0.625 µg/mL |  |  | 
Cl.N[C@H]1CCN(c2nc3c(cc2F)c(=O)c(C(=O)O)cn3-c2ccncc2F)C1 [Example 11, 1-(3-fluoro-4-pyridyl)-6-fluoro-7-[(3S)-3-amino-1-pyrrolidinyl]-1,4-dihydro-4-oxo-1,8-naphthyridine-3-carboxylic acid hydrochloride] |  |  | 0.625 µg/mL | 0.01 µg/mL | 0.078 µg/mL | 0.156 µg/mL |  | 0.625 µg/mL | 0.156 µg/mL | 2.5 µg/mL | 1.25 µg/mL | 0.156 µg/mL | 0.156 µg/mL |  | 1.25 µg/mL | 0.156 µg/mL | 0.156 µg/mL | 0.156 µg/mL | 0.156 µg/mL | 0.156 µg/mL | MIC [8, 31]: 0.313 µg/mL
Cl.O=C(O)c1cn(-c2ccc(F)cn2)c2nc(N3CCNCC3)c(F)cc2c1=O [Example 12, 1-(5-fluoro-2-pyridyl)-6-fluoro-7-(1-piperazinyl)-1,4-dihydro-4-oxo-1,8-naphthyridine-3-carboxylic acid hydrochloride] |  |  | 5 µg/mL | 0.313 µg/mL |  | 1.25 µg/mL | 0.625 µg/mL | 5 µg/mL | 0.625 µg/mL | 5 µg/mL | 5 µg/mL |  | 1.25 µg/mL |  |  | 1.25 µg/mL | 0.625 µg/mL | 0.625 µg/mL | 0.625 µg/mL | 1.25 µg/mL | MIC [6, 28]: 0.313 µg/mL; MIC [13, 32]: 1.25 µg/mL; MIC [16, 30]: 0.625 µg/mL
CC1CN(c2nc3c(cc2F)c(=O)c(C(=O)O)cn3-c2ccc(F)cn2)CC(C)N1.Cl (centres unmarked) [Example 15, 1-(5-fluoro-2-pyridyl)-6-fluoro-7-(3,5-dimethyl-1-piperazinyl)-1,4-dihydro-4-oxo-1,8-naphthyridine-3-carboxylic acid hydrochloride] | 1.25 µg/mL |  | 5 µg/mL | 0.078 µg/mL | 0.625 µg/mL | 2.5 µg/mL |  | 5 µg/mL | 0.313 µg/mL | 10 µg/mL | 10 µg/mL |  |  | 1.25 µg/mL | 0.625 µg/mL |  |  |  |  | 0.313 µg/mL | MIC [5, 19]: 0.625 µg/mL; MIC [8, 31]: 1.25 µg/mL; MIC (Enterobacter cloacae; [22]): 0.625 µg/mL; MIC [13, 32]: 1.25 µg/mL; MIC ([14]; S. typhisurium ATCC14028, 37° C.): 1.25 µg/mL
